Patent US9144578B2, “Fixed-dose association of phytate and zinc” (Universitat De Les Illes Balears, priority 2006, dated 2015)
“Also recorded” adds a separate entry of the source.

Tests used:
[1] = in vitro kinetics of precipitation of hydroxyapatite (Example 2, FIG. 2); conditions: [phosphate]=2.5 mM, [Ca^2+]=60 mg/l, pH=7.5
Description: In said FIG. 2 it is shown that the first series corresponds to the direct precipitation without phytate or Zn^2+. The second consists of the addition of 0.3 μM of Zn^2+. […] The third series corresponds to the precipitation of hydroxyapatite in the presence of 1.5 μM of phytate.
Finally, two series using 1.5 μM phytate and two different concentrations of zinc: Zn^2+: 0.3 μM (phytate-Zn molar ratio 5:1) and 0.15 μM (phytate-Zn molar ratio 10:1), respectively, are shown.
(§1) With the same system as in example 1, a system using the following experimental conditions: [phosphate]=2.5 mM, [Ca^2+]=60 mg/l, pH=7.5, was used. The kinetics of precipitation of the hydroxyapatite was recorded with a Shimadzu (UV-120-02) spectrophotometer using 3 ml plastic vials and recording the absorbance every 5 minutes at 550 nm.

[2] = in vitro kinetics of precipitation of hydroxyapatite (Example 1, FIG. 1); conditions: [phosphate]=1.5 mM, [Ca^2+]=60 mg/l, pH=7.5
Description: In said FIG. 1 it is shown that the first curve corresponds to direct precipitation without phytate or Zn^2+. The second (Zn^2+) consists of the addition of 0.038 μM of Zn^2+. […] The third curve (Phytate) corresponds to the precipitation of hydroxyapatite in the presence of 0.38 μM of phytate. […] Finally, the last graph (Phytate+Zn^2+) corresponds to the precipitation in the presence of 0.38 μM of phytate and 0.038 μM of Zn^2+ (phytate-Zn molar ratio 10:1).
as §1, with “An in vitro system was designed to study” for “With”, “kinetics of precipitation of hydroxyapatite. A” for “same system as in example 1, a”, “[phosphate]=1.5” for “[phosphate]=2.5”

SMILES | inhibiting effect on precipitation of hydroxyapatite ([1]; 1.5 μM of phytate) | inhibiting effect on precipitation of hydroxyapatite ([2]; 0.38 μM of phytate) | inhibiting effect on precipitation of hydroxyapatite ([1]; 0.3 μM of Zn^2+) | inhibiting effect on precipitation of hydroxyapatite ([2]; 0.038 μM of Zn^2+)
O=P(O)(O)O[C@H]1[C@H](OP(=O)(O)O)[C@@H](OP(=O)(O)O)[C@H](OP(=O)(O)O)[C@@H](OP(=O)(O)O)[C@H]1OP(=O)(O)O [Phytate, Myo-inositol hexaphosphate] | significant inhibiting effect | significant inhibiting effect | – | –
[Zn+2] [Zn^2+] | – | – | no inhibiting effect; also recorded: does not show any inhibiting effect | no inhibiting effect
